Experiment [1] addresses T1, human V1a receptor (Homo sapiens, UniProt P37288).
T1 construct: expressed in transfected cells; host or cells: CHO K1 (Chinese hamster ovary), also stably transfected with a modified aequorin
The experiment is described as follows: Cellular in vitro assay for vasopressin receptor activity, V1a receptor cell line (aequorin luminescence). It counts as cell-based. The conditions noted are these: for IC50: CHO cell line transfected with human V1a receptor, [Arg8]-vasopressin at EC50 concentration, read-out: IC50 hV1a; for ratio IC50 hV2/hV1a: selectivity ratio of the IC50 values hV2/hV1a. The procedure:
(§1) B-1. Cellular In Vitro Assay for Determining Vasopressin Receptor Activity
(§2) The identification of agonists and antagonists of the V1a and V2 vasopressin receptors from humans, rats and dogs as well as the quantification of the activity of the compounds of the invention is carried out using recombinant cell lines. These cell lines originally derive from a hamster's ovary epithelial cell (Chinese Hamster Ovary, CHO K1, ATCC: American Type Culture Collection, Manassas, Va. 20108, USA). The test cell lines constitutively express the human, rat or dog V1a or V2 receptors. In case of the […] V1a receptors, cells are also stably transfected with a modified form of the calcium-sensitive photoproteins aequorin (human and rat V1a) or obelin (dog V1a), which, after reconstitution with the cofactor coelenterazine, emit light when there are increases in free calcium concentrations [Rizzuto R, Simpson A W, Brini M, Pozzan T, Nature 358, 325-327 (1992); Illarionov B A, Bondar V S, Illarionova V A, Vysotski E S, Gene 153 (2), 273-274 (1995)]. The resulting vasopressin receptor cells react to stimulation of the recombinantly expressed V1a receptors by intracellular release of calcium ions, which can be quantified by the resulting photoprotein luminescence. The Gs-coupled V2 receptors are stably transfected into cell lines expressing the gene for firefly luciferase under control of a CRE-responsible promoter. Activation of V2 receptors induces the activation of the CRE-responsive promoter via cAMP increase, thereby inducing the expression of firefly luciferase. The light emitted by photoproteins of V1a cell lines as well as the light emitted by firefly luciferase of V2 cell lines corresponds to the activation or inhibition of the respective vasopressin receptor. The bioluminescence of the cell lines is detected using a suitable luminometer [Milligan G, Marshall F, Rees S, Trends in Pharmacological Sciences 17, 235-237 (1996)].
Vasopressin V1a Receptor Cell Lines:
On the day before the assay, the cells are plated out in culture medium (DMEM/F12, 2% FCS, 2 mM glutamine, 10 mM HEPES, 5 μg/ml coelenterazine) in 384-well microtiter plates and kept in a cell incubator (96% humidity, 5% v/v CO2, 37° C.). On the day of the assay, test compounds in various concentrations are placed for 10 minutes in the wells of the microtiter plate before the agonist [Arg^8]-vasopressin at EC50 concentration is added. The resulting light signal is measured immediately in a luminometer.
(§3) Table 1A below lists individual IC50 values for the compounds of the invention (including racemic mixtures as well as separated enantiomers) that were obtained from cell lines transfected with the human V1a or V2 receptor: […]

In experiment [2] the target is T2, human V2 receptor (Homo sapiens, UniProt P30518).
T2 construct: expressed in transfected cells; host or cells: CHO K1 (Chinese hamster ovary) expressing firefly luciferase under a CRE-responsive promoter
The experiment is described as follows: Cellular in vitro assay for vasopressin receptor activity, V2 receptor cell line (CRE-luciferase). It is filed as cell-based. Conditions: CHO cell line transfected with human V2 receptor; [Arg8]-vasopressin at EC50 concentration; read-out: IC50 hV2. The procedure: as §1, §2
Vasopressin V2 Receptor Cell Lines:
On the day before the assay, the cells are plated out in culture medium (DMEM/F12, 2% FCS, 2 mM glutamine, 10 mM HEPES) in 384-well microtiter plates and kept in a cell incubator (96% humidity, 5% v/v CO2, 37° C.). On the day of the assay, test compounds in various concentrations and the agonist [Arg^8]-vasopressin at EC50 concentration are added together to the wells, and plates are incubated for 3 hours in a cell incubator. Upon addition of the cell lysis reagent Triton™ and the substrate luciferin, luminescence of firefly luciferase is measured in a luminometer.
as §3

Each structure is given as a SMILES string.

For orientation: IC50 means the concentration needed to halve the response being measured.

T2 sequence (P30518 whole entry): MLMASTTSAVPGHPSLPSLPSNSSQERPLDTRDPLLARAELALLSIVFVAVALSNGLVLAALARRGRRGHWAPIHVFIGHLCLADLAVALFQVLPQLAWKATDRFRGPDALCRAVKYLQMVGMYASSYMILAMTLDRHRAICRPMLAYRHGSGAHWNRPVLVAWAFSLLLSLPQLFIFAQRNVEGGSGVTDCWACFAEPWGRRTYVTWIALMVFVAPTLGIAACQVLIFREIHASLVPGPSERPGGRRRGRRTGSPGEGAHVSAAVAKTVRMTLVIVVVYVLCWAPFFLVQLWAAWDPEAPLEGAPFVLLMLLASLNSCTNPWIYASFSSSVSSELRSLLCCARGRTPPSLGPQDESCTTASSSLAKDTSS
T1 sequence (P37288 whole entry): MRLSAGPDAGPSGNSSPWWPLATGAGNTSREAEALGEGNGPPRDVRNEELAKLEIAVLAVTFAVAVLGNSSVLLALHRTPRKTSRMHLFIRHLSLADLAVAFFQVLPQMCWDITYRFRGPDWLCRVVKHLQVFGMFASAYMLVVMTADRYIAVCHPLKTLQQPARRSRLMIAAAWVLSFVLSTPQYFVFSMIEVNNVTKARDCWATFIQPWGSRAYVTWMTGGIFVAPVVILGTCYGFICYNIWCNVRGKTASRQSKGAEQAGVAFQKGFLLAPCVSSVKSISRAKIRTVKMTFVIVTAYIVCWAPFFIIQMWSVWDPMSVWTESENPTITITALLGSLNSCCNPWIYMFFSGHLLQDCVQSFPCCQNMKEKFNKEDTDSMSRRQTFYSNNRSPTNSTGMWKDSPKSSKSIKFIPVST

As for `O=C(NCC(F)(F)F)c1nc(Cn2nc(-c3ccc(Cl)cc3)n(C[C@H](O)C(F)(F)F)c2=O)nn1-c1ncccc1Cl` [Example 17, 3-({3-(4-Chlorophenyl)-5-oxo-4-[(2S)-3,3,3-trifluoro-2-hydroxypropyl]-4,5-dihydro-1H-1,2,4-triazol-1-yl}methyl)-1-(3-chloropyridin-2-yl)-N-(2,2,2-trifluoroethyl)-1H-1,2,4-triazole-5-carboxamide], in experiment [1], the IC50 turned out to be 0.71 nM and the “ratio IC50 hV2/hV1a” value is listed as 40.2. For the same compound, in experiment [2], the IC50 was determined as 28.3 nM.
For `O=C(NCC(F)(F)F)c1nc(Cn2nc(-c3ccc(Cl)cc3)n(C[C@H](O)C(F)(F)F)c2=O)nn1-c1cccnc1Cl` [Example 18, 3-({3-(4-Chlorophenyl)-5-oxo-4-[(2S)-3,3,3-trifluoro-2-hydroxypropyl]-4,5-dihydro-1H-1,2,4-triazol-1-yl}methyl)-1-(2-chloropyridin-3-yl)-N-(2,2,2-trifluoroethyl)-1H-1,2,4-triazole-5-carboxamide], in that order: 13.5 nM, 4.7 and 64 nM.
In the case of `O=C(NCC(F)(F)F)c1nc(Cn2nc(-c3ccc(Cl)cc3)n(C[C@H](O)C(F)(F)F)c2=O)nn1-c1cnccc1Cl` [Example 19, 3-({3-(4-Chlorophenyl)-5-oxo-4-[(2S)-3,3,3-trifluoro-2-hydroxypropyl]-4,5-dihydro-1H-1,2,4-triazol-1-yl}methyl)-1-(4-chloropyridin-3-yl)-N-(2,2,2-trifluoroethyl)-1H-1,2,4-triazole-5-carboxamide], the IC50 in experiment [1] is 0.47 nM; in experiment [2], 21.5 nM. Also, the “ratio IC50 hV2/hV1a” value in experiment [1] turned out to be 45.7.
The matching figures for `COc1cccnc1-n1nc(Cn2nc(-c3ccc(Cl)cc3)n(C[C@H](O)C(F)(F)F)c2=O)nc1C(=O)NCC(C)(C)N` [Example 20, N-(2-Amino-2-methylpropyl)-3-({3-(4-chlorophenyl)-5-oxo-4-[(2S)-3,3,3-trifluoro-2-hydroxypropyl]-4,5-dihydro-1H-1,2,4-triazol-1-yl}methyl)-1-(3-methoxypyridin-2-yl)-1H-1,2,4-triazole-5-carboxamide]: 6.95 nM, 104 nM and 14.9.
For `CNC(=O)c1nc(Cn2nc(-c3ccc(Cl)cc3)n(C[C@H](O)C(F)(F)F)c2=O)nn1-c1ncccc1OC` [Example 21, 3-({3-(4-Chlorophenyl)-5-oxo-4-[(2S)-3,3,3-trifluoro-2-hydroxypropyl]-4,5-dihydro-1H-1,2,4-triazol-1-yl}methyl)-1-(3-methoxypyridin-2-yl)-N-methyl-1H-1,2,4-triazole-5-carboxamide], in that order: 6.05 nM, 22.5 nM and 3.7.
`O=C(c1nc(Cn2nc(-c3ccc(Cl)cc3)n(C[C@H](O)C(F)(F)F)c2=O)nn1CCC(F)(F)F)N1CCOCC1` [Example 26, 5-(4-Chlorophenyl)-2-{[5-(morpholin-4-ylcarbonyl)-1-(3,3,3-trifluoropropyl)-1H-1,2,4-triazol-3-yl]methyl}-4-[(2S)-3,3,3-trifluoro-2-hydroxypropyl]-2,4-dihydro-3H-1,2,4-triazol-3-one]: the IC50 in experiment [1] came out at 75 nM; in experiment [2] it was 730 nM.
Take `CC(C)(C)NC(=O)c1nc(Cn2nc(-c3ccc(Cl)cc3)n(C[C@H](O)C(F)(F)F)c2=O)nn1-c1ncccc1Cl` [Example 27, N-tert-Butyl-3-({3-(4-chlorophenyl)-5-oxo-4-[(2S)-3,3,3-trifluoro-2-hydroxypropyl]-4,5-dihydro-1H-1,2,4-triazol-1-yl}methyl)-1-(3-chloropyridin-2-yl)-1H-1,2,4-triazole-5-carboxamide]: the IC50 turned out to be 4.15 nM in experiment [1] and 106 nM in experiment [2]. The “ratio IC50 hV2/hV1a” value in experiment [1] turned out to be 25.5.

For the origin of these results see US11230540B2, “Substituted triazole derivatives and uses thereof” (Bayer Pharma Aktiengesellschaft, priority 2017, dated 2022).
